For series [1], the system named is Protein kinase C (Rattus norvegicus). As to the kind of experiment: Inhibition of rat brain PKC at 10 uM.
The species named for series [2] is Rattus norvegicus. As to the kind of experiment: Inhibition of rat striatum tyrosine hydroxylase at 10 uM. In kind it is tissue-based.
For series [3], the species on record is Bos taurus. Nature of the series: Inhibition of bovine PDE1 at 10 uM.
Series [4] addresses Phosphodiesterase 3 (Homo sapiens) (UniProt Q14432+Q13370). Nature of the series: Inhibition of PDE3 expressed in human platelets at 10 uM.
The target in series [5] is cGMP-specific 3',5'-cyclic phosphodiesterase (Homo sapiens) (UniProt O76074). As to the kind of experiment: Inhibition of PDE5 in human platelet cells at 10 uM. In kind it is cell-based.
The species named for series [6] is Bos taurus. Nature of the series: Inhibition of bovine lung guanylyl cyclase at 10 uM.
Series [7] has as its target 4-aminobutyrate aminotransferase, mitochondrial (Rattus norvegicus) (UniProt P50554). Nature of the series: Inhibition of rat brain GABA transaminase at 10 uM.
The target of series [8] is Sodium-dependent noradrenaline transporter (Homo sapiens) (UniProt P23975). As to the kind of experiment: Displacement of radiolabeled protriptyline from human recombinant NET expressed in CHO cells at 10 uM. In kind it is cell-based.
The species entered for a further series is Canis lupus familiaris. Nature of the series: Inhibition of dog kidney (Na+/K+) ATPase at 10 uM.
In series [9] the target is T1, Amine oxidase [flavin-containing] B (Homo sapiens, UniProt P27338).
T1 sequence (P27338 whole entry): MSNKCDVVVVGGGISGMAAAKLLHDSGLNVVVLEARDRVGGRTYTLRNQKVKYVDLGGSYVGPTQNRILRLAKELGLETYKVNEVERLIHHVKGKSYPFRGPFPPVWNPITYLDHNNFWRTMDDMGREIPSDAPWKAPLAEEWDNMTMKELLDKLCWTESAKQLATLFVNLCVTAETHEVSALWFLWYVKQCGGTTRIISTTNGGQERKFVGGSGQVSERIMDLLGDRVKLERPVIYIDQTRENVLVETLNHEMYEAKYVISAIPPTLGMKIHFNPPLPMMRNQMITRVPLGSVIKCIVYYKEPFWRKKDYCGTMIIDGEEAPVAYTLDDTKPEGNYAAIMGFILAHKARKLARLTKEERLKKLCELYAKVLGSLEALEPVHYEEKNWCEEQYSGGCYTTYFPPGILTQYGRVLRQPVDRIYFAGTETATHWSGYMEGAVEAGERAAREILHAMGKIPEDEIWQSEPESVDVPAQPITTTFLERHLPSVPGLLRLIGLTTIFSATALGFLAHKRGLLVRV
Nature of the series: Inhibition of MAOB in human platelets at 10 uM.

In series [10] the target is Phosphodiesterase 4 (Homo sapiens) (UniProt P27815+Q08499+Q07343+Q08493). As to the kind of experiment: Inhibition of PDE4 expressed in U937 cells at 10 uM. The format is cell-based. Conditions: U-937.
Series [11] concerns the target cGMP-dependent 3',5'-cyclic phosphodiesterase (Homo sapiens) (UniProt O00408). Nature of the series: Inhibition of PDE2 expressed in differentiated U937 cells at 10 uM. The format is cell-based. The settings on record: U-937.
Series [12] has as its target Acetylcholinesterase (Homo sapiens) (UniProt P22303). As to the kind of experiment: Inhibition of human recombinant AChE expressed in HEK293 cells at 10 uM. In kind it is cell-based.
The species entered for series [13] is Rattus norvegicus. As to the kind of experiment: Inhibition of rat brain adenylyl cyclase at 10 uM.
The species entered for a further series is Sus scrofa. As to the kind of experiment: Inhibition of pig liver catechol-O-methyl transferase at 10 uM.
The target in series [14] is T2, Phenylethanolamine N-methyltransferase (Bos taurus) (UniProt P10938).
T2 sequence (whole entry): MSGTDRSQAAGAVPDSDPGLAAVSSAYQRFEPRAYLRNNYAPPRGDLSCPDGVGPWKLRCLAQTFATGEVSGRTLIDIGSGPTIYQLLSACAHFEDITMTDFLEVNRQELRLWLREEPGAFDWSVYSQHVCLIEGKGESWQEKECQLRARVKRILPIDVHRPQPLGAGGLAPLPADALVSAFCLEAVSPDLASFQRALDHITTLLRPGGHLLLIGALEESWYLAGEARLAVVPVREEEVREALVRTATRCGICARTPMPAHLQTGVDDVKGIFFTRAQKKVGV
Nature of the series: Inhibition of bovine adrenal medulla phenylethanolamine-N-methyl transferase at 10 uM. The format is tissue-based.

The species named for series [15] is Rattus norvegicus. Nature of the series: Displacement of radiolabeled naloxone from opiate receptor in rat cerebral cortex. The format is tissue-based. Conditions: concentration not given here.
For the next series, the species on record is Homo sapiens. Nature of the series: Displacement of radiolabeled ligand from nicotinic acetylcholine receptor at 10 uM.
The target in series [16] is Serotonin (5-HT) receptor (Rattus norvegicus) (UniProt P35563+P35365+P32305+P31388+Q9JJ16+P28564+P30994+Q62758+P08909+P14842+P30940+P35364+P19327+P28565). As to the kind of experiment: Displacement of radiolabeled serotonin from 5-HT receptor in rat cerebral cortex. In kind it is tissue-based. Conditions: concentration not given here.
In series [17] the target is Adrenergic receptor alpha-1 (Rattus norvegicus) (UniProt P15823+P23944+P43140). Nature of the series: Displacement of radiolabeled prazosin from adrenergic alpha1 receptor in rat cerebral cortex. Conditions: concentration not given here. In kind it is tissue-based.
In series [18] the target is Adrenergic receptor alpha-2 (Rattus norvegicus) (UniProt P22086+P19328+P22909). Nature of the series: Displacement of radiolabeled yohimbine from adrenergic alpha-2 receptor in rat cerebral cortex. The settings on record: concentration not given here. The format is tissue-based.
The target of series [19] is Muscarinic acetylcholine receptor M5 (Rattus norvegicus) (UniProt P08911). Nature of the series: Displacement of radiolabeled atropine from rat brain muscarinic M5 receptor at 10 uM.
Series [20] concerns the target Muscarinic acetylcholine receptor M3 (Rattus norvegicus) (UniProt P08483). Nature of the series: Displacement of radiolabeled atropine from rat brain muscarinic M3 receptor at 10 uM.
For series [21], the target named is Muscarinic acetylcholine receptor M4 (Rattus norvegicus) (UniProt P08485). Nature of the series: Displacement of radiolabeled atropine from rat brain muscarinic M4 receptor at 10 uM.
Series [22] concerns the target Muscarinic acetylcholine receptor M2 (Rattus norvegicus) (UniProt P10980). Nature of the series: Displacement of radiolabeled atropine from rat brain muscarinic M2 receptor at 10 uM.
For series [23], the target named is Muscarinic acetylcholine receptor M1 (Rattus norvegicus) (UniProt P08482). Nature of the series: Displacement of radiolabeled atropine from rat brain muscarinic M1 receptor at 10 uM.

Data on seven compounds can be found in ChEMBL document CHEMBL1143001, “Designing active template molecules by combining computational de novo design and human chemist's expertise” (J Med Chem, 2007).

The source made the active and inactive calls. No cut-off for these calls is given here.

Sequence of cGMP-dependent 3',5'-cyclic phosphodiesterase (Homo sapiens) (O00408 whole entry): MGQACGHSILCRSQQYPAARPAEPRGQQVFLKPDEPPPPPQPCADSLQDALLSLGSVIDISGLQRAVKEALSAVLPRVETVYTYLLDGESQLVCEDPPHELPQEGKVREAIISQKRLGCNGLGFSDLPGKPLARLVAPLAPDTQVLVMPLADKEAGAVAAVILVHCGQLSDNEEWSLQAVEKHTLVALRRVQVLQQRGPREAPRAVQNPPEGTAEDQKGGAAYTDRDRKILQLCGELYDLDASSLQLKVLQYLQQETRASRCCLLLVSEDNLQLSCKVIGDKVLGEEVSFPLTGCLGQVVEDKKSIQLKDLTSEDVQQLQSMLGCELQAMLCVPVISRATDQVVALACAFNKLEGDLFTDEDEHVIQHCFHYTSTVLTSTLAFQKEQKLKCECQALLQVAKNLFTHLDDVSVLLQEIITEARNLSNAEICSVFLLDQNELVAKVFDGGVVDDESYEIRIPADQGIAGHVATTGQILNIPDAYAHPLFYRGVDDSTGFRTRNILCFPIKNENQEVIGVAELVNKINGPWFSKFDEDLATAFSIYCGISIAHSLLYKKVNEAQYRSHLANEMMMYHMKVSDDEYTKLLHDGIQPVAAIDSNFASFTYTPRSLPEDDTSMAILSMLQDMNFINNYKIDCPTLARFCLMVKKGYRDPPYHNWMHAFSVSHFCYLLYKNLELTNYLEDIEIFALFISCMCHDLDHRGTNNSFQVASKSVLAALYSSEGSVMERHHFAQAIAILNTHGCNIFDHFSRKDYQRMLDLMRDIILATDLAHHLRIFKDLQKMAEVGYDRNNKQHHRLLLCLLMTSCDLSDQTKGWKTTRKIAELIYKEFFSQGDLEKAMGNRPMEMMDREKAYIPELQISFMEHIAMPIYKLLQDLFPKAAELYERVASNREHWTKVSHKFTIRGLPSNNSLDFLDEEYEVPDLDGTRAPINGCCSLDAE
Sequence of Acetylcholinesterase (Homo sapiens) (P22303 whole entry): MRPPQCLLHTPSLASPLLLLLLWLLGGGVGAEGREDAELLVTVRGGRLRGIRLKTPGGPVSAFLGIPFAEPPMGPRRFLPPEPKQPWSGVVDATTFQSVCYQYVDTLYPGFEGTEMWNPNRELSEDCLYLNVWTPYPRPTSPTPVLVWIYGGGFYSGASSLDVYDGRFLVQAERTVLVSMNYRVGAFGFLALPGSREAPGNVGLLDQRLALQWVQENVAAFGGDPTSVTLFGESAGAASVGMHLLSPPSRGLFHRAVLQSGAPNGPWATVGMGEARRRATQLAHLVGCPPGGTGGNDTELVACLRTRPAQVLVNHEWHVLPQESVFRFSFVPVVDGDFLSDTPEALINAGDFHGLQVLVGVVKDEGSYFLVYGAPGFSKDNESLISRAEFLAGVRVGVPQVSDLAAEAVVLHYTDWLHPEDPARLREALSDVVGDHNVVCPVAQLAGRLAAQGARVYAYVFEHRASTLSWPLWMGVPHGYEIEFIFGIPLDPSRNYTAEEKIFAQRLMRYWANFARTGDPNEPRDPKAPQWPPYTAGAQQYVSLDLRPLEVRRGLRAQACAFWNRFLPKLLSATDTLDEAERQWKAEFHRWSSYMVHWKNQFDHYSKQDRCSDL
Sequence of 4-aminobutyrate aminotransferase, mitochondrial (Rattus norvegicus) (P50554 28-500 limits assumed): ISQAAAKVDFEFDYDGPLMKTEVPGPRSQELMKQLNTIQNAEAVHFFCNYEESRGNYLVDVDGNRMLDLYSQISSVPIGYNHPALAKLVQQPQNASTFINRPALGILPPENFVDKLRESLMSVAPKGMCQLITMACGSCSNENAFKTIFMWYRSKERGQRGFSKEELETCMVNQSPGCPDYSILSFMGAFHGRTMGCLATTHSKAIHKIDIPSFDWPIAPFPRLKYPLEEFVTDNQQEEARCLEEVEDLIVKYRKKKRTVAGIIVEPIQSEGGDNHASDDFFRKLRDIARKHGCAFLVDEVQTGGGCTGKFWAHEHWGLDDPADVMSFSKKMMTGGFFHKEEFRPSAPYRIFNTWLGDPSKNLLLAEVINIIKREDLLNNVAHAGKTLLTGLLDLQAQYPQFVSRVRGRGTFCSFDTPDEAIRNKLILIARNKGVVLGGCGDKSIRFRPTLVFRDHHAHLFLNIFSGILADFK
Sequence of Sodium-dependent noradrenaline transporter (Homo sapiens) (P23975 whole entry): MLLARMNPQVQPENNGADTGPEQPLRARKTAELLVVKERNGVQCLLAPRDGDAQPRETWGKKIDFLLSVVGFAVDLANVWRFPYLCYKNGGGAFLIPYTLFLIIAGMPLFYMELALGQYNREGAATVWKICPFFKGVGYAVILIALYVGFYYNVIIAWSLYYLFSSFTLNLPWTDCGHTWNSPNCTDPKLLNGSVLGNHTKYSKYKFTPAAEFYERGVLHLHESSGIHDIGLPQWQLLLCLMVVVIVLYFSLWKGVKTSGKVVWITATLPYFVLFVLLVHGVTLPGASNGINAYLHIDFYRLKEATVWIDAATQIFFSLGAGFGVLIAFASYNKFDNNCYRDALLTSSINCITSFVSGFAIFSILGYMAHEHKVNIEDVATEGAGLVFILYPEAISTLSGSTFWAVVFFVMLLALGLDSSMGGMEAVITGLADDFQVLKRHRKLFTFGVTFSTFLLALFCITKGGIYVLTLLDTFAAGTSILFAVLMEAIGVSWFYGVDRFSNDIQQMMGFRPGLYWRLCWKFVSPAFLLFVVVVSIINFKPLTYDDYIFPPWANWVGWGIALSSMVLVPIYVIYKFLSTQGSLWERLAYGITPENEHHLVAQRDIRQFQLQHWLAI
Sequence of Muscarinic acetylcholine receptor M5 (Rattus norvegicus) (P08911 whole entry): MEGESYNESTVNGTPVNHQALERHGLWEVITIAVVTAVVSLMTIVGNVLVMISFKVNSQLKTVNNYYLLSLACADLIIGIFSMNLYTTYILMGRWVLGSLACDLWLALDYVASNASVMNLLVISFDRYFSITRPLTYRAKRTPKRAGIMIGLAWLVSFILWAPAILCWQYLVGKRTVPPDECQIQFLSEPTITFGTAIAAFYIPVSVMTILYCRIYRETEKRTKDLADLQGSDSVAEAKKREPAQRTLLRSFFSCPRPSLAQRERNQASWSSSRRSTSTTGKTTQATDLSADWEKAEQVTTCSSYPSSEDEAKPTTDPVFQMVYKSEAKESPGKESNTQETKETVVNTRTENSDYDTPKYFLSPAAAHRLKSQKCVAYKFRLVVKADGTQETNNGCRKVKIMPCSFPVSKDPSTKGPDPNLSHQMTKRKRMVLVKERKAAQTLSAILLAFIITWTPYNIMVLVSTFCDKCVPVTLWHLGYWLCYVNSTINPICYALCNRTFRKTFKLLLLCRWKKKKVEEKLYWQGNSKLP
Sequence of Muscarinic acetylcholine receptor M1 (Rattus norvegicus) (P08482 whole entry): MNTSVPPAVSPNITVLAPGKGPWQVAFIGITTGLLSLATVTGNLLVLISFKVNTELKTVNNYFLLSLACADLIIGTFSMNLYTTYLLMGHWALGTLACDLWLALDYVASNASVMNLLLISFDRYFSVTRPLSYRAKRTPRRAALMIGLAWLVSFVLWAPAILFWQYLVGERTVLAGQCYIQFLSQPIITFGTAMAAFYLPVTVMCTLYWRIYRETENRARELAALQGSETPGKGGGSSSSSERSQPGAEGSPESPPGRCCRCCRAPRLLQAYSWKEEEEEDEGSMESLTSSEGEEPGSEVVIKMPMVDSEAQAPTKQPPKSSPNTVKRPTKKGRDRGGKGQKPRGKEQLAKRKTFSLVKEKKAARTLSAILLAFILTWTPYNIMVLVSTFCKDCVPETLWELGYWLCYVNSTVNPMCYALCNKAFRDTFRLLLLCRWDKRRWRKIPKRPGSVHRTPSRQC
Sequence of Muscarinic acetylcholine receptor M4 (Rattus norvegicus) (P08485 whole entry): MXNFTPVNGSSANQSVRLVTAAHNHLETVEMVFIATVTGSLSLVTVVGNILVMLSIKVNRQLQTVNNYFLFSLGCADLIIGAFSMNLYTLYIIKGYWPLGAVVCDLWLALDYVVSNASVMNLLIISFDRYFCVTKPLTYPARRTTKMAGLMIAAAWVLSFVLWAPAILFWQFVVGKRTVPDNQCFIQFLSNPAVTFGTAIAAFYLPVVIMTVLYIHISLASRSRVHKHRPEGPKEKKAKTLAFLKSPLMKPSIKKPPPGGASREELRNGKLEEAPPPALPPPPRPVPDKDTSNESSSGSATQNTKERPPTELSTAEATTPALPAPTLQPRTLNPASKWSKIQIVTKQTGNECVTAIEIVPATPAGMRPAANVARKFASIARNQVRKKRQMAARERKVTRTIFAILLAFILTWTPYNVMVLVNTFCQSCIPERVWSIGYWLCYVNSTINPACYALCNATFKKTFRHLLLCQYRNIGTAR
Sequence of Muscarinic acetylcholine receptor M3 (Rattus norvegicus) (P08483 whole entry, looked up): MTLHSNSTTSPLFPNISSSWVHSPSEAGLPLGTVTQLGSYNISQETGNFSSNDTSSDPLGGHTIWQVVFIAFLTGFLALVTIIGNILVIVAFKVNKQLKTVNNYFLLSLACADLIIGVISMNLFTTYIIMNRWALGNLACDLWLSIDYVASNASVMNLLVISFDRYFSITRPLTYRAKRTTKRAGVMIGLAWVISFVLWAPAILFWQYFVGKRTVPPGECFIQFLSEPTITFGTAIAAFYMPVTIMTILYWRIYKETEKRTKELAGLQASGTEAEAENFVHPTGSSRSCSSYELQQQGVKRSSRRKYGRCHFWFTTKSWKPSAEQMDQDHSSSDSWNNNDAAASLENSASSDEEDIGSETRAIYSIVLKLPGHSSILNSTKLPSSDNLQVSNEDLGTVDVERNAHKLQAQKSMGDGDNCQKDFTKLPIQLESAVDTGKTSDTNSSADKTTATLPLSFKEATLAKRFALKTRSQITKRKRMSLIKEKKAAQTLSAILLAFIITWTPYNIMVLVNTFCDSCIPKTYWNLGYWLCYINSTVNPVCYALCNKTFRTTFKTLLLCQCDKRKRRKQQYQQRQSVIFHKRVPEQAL

In the case of `Nc1ccc(-c2ccoc2)cc1`, the result (in [1]; in the series filed under Rattus norvegicus [2]; in the series filed under Bos taurus [3]; in series [4]; in series [5]; in the series listed under Bos taurus [6]) was inactive. Further, the outcome (in [7]; in the series listed under Canis lupus familiaris; in series [10]; in series [11]; in series [12]; in the series filed under Rattus norvegicus [13]) was inactive. The outcome (in the series listed under Sus scrofa; in series [14]) was inactive. Besides, the inhibition in [8] amounted to 77%. The Activity result in series [9] is listed as “Not Active”.
Turning to `N#Cc1cccc(CN2CCCCC2=O)c1`, the result (in [1]; in the series filed under Rattus norvegicus [2]; in the series listed under Bos taurus [3]; in series [4]; in [5]; in the series listed under Bos taurus [6]) was inactive. The outcome (in series [7]; in the series listed under Canis lupus familiaris; in [10]; in series [11]; in [12]; in the series listed under Rattus norvegicus [13]) was inactive. In addition, the outcome (in the series listed under Sus scrofa; in series [14]) was inactive. Further, the Activity result in [9] is “Not Active”.
In the case of `OCc1ccccc1C1CCCNC1` (stereo not drawn), the inhibition in the series filed under Rattus norvegicus [15] worked out at 35%; in the series listed under Homo sapiens, 45%; in [16] it was 39%; in [17], 47%; in series [18] it was 62%. Further, the outcome (in series [1]; in the series filed under Rattus norvegicus [2]; in the series filed under Bos taurus [3]; in [4]; in series [5]; in the series filed under Bos taurus [6]) was inactive. Moreover, the outcome (in series [7]; in the series filed under Canis lupus familiaris; in series [10]; in series [11]; in [12]; in the series filed under Rattus norvegicus [13]) was inactive. Besides, the result (in the series filed under Sus scrofa; in [14]) was inactive. For the same compound, the Activity result in series [9] was “Not Active”.
For the compound `Nc1cccc(-c2ccoc2)c1`, the outcome (in series [1]; in the series listed under Rattus norvegicus [2]; in the series listed under Bos taurus [3]; in [4]; in series [5]; in the series listed under Bos taurus [6]) was inactive. In addition, the outcome (in [7]; in the series filed under Canis lupus familiaris; in series [10]; in [11]; in [12]; in the series filed under Rattus norvegicus [13]) was inactive. Also, the outcome (in the series listed under Sus scrofa; in series [14]) was inactive. Besides, the inhibition in the series listed under Homo sapiens is 42%; in series [8], 80%. In addition, the Activity entry in [9] is given as “Not Active”.
As for `N#Cc1cccc(CC2CCCNC2=O)c1` (stereo not drawn), the result (in series [1]; in the series filed under Rattus norvegicus [2]; in the series filed under Bos taurus [3]; in series [4]; in series [5]; in the series filed under Bos taurus [6]) was inactive. The result (in series [7]; in the series filed under Canis lupus familiaris; in series [10]; in series [11]; in series [12]; in the series filed under Rattus norvegicus [13]) was inactive. The outcome (in the series listed under Sus scrofa; in [14]) was inactive. The Activity entry in series [9] is given as “Not Active”.
In the case of `NCc1cccc(CC2CCCNC2=O)c1` (stereo not drawn), the result (in series [1]; in the series filed under Rattus norvegicus [2]; in the series filed under Bos taurus [3]; in [4]; in [5]; in the series filed under Bos taurus [6]) was inactive. Besides, the result (in series [7]; in the series filed under Canis lupus familiaris; in series [10]; in [11]; in [12]; in the series listed under Rattus norvegicus [13]) was inactive. Also, the result (in the series listed under Sus scrofa; in series [14]) was inactive. The inhibition in series [19], in series [20], in series [21], in series [22] and in series [23] was 50% each time. Moreover, in [9], the Activity entry was “Not Active”.
As to `O=C(O)CCC(=O)Nc1ccc(-c2ccoc2)cc1`, the result (in series [1]; in the series filed under Rattus norvegicus [2]; in the series listed under Bos taurus [3]; in series [4]; in series [5]; in the series listed under Bos taurus [6]) was inactive. Besides, the result (in series [7]; in the series filed under Canis lupus familiaris; in [10]; in series [11]; in [12]; in the series filed under Rattus norvegicus [13]) was inactive. Further, the result (in the series filed under Sus scrofa; in series [14]) was inactive. Further, the Activity entry in series [9] is recorded as “Not Active”.
